# Test results published in the supplement of paper PMC10307832.
# Assays:
# Assay in all cases: relative viability (nuclei count vs DMSO), 5 days (fraction); higher = more cells survive
# OSI-027 + Trametinib = compound: COc1cccc2cc(-c3nc([C@H]4CC[C@H](C(=O)O)CC4)n4ncnc(N)c34)[nH]c12 [OSI-027] + CC(=O)Nc1cccc(-n2c(=O)n(C3CC3)c(=O)c3c(Nc4ccc(I)cc4F)n(C)c(=O)c(C)c32)c1 [Trametinib] (partner 0.02 µM)
# How it was run: (§1)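 Five library-drug doses in √10 steps were combined with a fixed anchor-drug dose, or a single drug was given alone, by pin tool to lung cancer cell lines in 1536-well plates the day after seeding. Nuclei were stained and counted after 5 days. Relative viability is the nuclei count in treated wells over that in vehicle wells, taken as the median of duplicate plates.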
# Vemurafenib + Foretinib = compound: CCCS(=O)(=O)Nc1ccc(F)c(C(=O)c2c[nH]c3ncc(-c4ccc(Cl)cc4)cc23)c1F [Vemurafenib] + COc1cc2c(Oc3ccc(NC(=O)C4(C(=O)Nc5ccc(F)cc5)CC4)cc3F)ccnc2cc1OCCCN1CCOCC1 [Foretinib] (partner 0.25 µM)
# How it was run: as §1
# OSI-027 + AZD7762 = compound: COc1cccc2cc(-c3nc([C@H]4CC[C@H](C(=O)O)CC4)n4ncnc(N)c34)[nH]c12 [OSI-027] + NC(=O)Nc1cc(-c2cccc(F)c2)sc1C(=O)N[C@H]1CCCNC1 [AZD7762] (partner 0.2 µM)
# How it was run: as §1
# OSI-027 + Luminespib = compound: COc1cccc2cc(-c3nc([C@H]4CC[C@H](C(=O)O)CC4)n4ncnc(N)c34)[nH]c12 [OSI-027] + CCNC(=O)c1noc(-c2cc(C(C)C)c(O)cc2O)c1-c1ccc(CN2CCOCC2)cc1 [Luminespib] (partner 0.01 µM)
# How it was run: as §1
Cell Line,relative viability (OSI-027 + Trametinib; first compound 0.01 µM),relative viability (OSI-027 + Trametinib; first compound 0.03162 µM),relative viability (OSI-027 + Trametinib; first compound 0.1 µM),relative viability (OSI-027 + Trametinib; first compound 0.3162 µM),relative viability (OSI-027 + Trametinib; first compound 1 µM),relative viability (Vemurafenib + Foretinib; first compound 0.03162 µM),relative viability (Vemurafenib + Foretinib; first compound 0.3162 µM),relative viability (Vemurafenib + Foretinib; first compound 1 µM),relative viability (OSI-027 + AZD7762; first compound 0.01 µM),relative viability (OSI-027 + AZD7762; first compound 0.03162 µM),relative viability (OSI-027 + AZD7762; first compound 0.1 µM),relative viability (OSI-027 + AZD7762; first compound 0.3162 µM),relative viability (OSI-027 + AZD7762; first compound 1 µM),relative viability (OSI-027 + Luminespib; first compound 0.01 µM),relative viability (OSI-027 + Luminespib; first compound 0.03162 µM),relative viability (OSI-027 + Luminespib; first compound 0.1 µM),relative viability (OSI-027 + Luminespib; first compound 0.3162 µM),relative viability (OSI-027 + Luminespib; first compound 1 µM),relative viability (Vemurafenib + Foretinib; first compound 0.1 µM)
EKVX,0.413,0.359,0.3,0.293,0.313,0.617,0.745,0.703,0.694,0.726,0.666,0.692,0.562,0.743,0.8,0.872,0.727,0.604,–
NCI-H2126,0.54,0.593,0.526,0.447,0.537,1.13,1.31,1.09,0.975,0.954,0.998,0.868,0.819,0.93,1.01,0.85,0.575,0.547,0.696
HCC-827,0.555,0.491,0.45,0.433,0.309,0.911,1.12,1.04,0.194,0.201,0.195,0.205,0.214,0.775,0.75,0.51,0.337,0.171,–
LK-2,0.766,0.578,0.594,0.406,0.221,1.37,1.09,0.915,0.538,–,0.277,0.16,0.112,0.172,0.193,0.159,0.173,0.137,0.913
PC-14,0.793,0.934,0.71,0.649,0.282,0.882,0.876,0.942,0.369,0.314,0.302,0.35,0.22,0.146,0.108,0.126,0.17,0.17,–
NCI-H1355,0.401,0.458,0.341,0.3,0.252,0.922,1,1.03,0.703,0.88,0.753,0.628,0.38,0.604,0.582,0.589,0.416,0.406,0.924
LXF-289,0.681,0.707,0.752,0.612,0.357,0.968,1.07,1.07,1.06,1.02,1.23,1.15,0.959,0.544,0.612,0.471,0.458,0.258,0.931
LOU-NH91,0.766,0.785,0.66,0.591,0.579,0.914,–,0.975,0.762,0.702,0.667,0.597,0.482,0.312,0.308,0.333,0.306,0.315,–
NCI-H2170,1.02,0.901,0.807,0.746,0.267,0.907,1,1.02,0.995,0.824,0.768,0.689,0.515,0.844,0.639,0.565,0.544,0.176,0.858
NCI-H2405,0.643,0.663,0.597,0.471,0.373,1,–,1.03,0.701,0.836,0.699,0.598,0.376,0.678,0.647,0.559,0.479,0.443,1.03
LCLC-103H,0.708,0.645,0.65,0.609,0.689,0.668,0.704,0.69,0.8,0.717,0.748,0.64,0.542,1.03,0.994,0.908,0.85,0.504,0.685
NCI-H322M,0.509,0.543,0.496,0.482,0.455,0.923,–,1.02,0.621,0.61,0.481,0.427,0.419,0.84,0.831,0.66,0.446,0.369,–
NCI-H23,0.313,0.42,0.349,0.26,0.28,0.981,0.953,0.719,0.231,0.259,0.26,0.253,0.215,–,0.215,0.188,0.203,0.225,0.685
HCC-15,0.317,0.365,0.352,0.283,0.238,0.941,–,1.05,1.14,1.21,1.19,1.28,0.986,0.347,0.501,0.397,0.264,0.339,1.09
NCI-H1437,0.43,0.406,0.493,0.39,0.248,1.18,1.3,1.27,1.11,1.02,1.14,1,0.566,1.08,1.12,1.16,1.14,0.806,1.22
A-427,0.721,0.747,0.574,0.437,0.329,1.01,1.06,1.18,0.676,0.52,0.557,0.541,0.399,0.92,0.891,0.811,0.61,0.505,0.951
NCI-H1975,0.278,0.386,0.3,0.294,0.264,0.957,0.792,0.963,0.708,0.697,0.545,0.609,0.591,0.232,0.195,0.157,0.121,0.187,0.969
